According to article PMC9888433, “Biochemical and hydrogen-deuterium exchange studies of the single nucleotide polymorphism Y649C in human platelet 12-lipoxygenase linked to a bleeding disorder” (Archives of biochemistry and biophysics, 2022):

What was measured:
[1] = molecular target: T1, human platelet 12-lipoxygenase (h12-LOX) (Homo sapiens, UniProt P18054); assay: steady-state Michaelis-Menten kinetics ([…] nm), kcat/KM at […] °C; LC-MS/MS products; assay type: biochemical
T1 construct: gene ALOX12; Nt-6His-tag recombinant enzyme expressed in Sf9
T1 sequence (P18054 1-663): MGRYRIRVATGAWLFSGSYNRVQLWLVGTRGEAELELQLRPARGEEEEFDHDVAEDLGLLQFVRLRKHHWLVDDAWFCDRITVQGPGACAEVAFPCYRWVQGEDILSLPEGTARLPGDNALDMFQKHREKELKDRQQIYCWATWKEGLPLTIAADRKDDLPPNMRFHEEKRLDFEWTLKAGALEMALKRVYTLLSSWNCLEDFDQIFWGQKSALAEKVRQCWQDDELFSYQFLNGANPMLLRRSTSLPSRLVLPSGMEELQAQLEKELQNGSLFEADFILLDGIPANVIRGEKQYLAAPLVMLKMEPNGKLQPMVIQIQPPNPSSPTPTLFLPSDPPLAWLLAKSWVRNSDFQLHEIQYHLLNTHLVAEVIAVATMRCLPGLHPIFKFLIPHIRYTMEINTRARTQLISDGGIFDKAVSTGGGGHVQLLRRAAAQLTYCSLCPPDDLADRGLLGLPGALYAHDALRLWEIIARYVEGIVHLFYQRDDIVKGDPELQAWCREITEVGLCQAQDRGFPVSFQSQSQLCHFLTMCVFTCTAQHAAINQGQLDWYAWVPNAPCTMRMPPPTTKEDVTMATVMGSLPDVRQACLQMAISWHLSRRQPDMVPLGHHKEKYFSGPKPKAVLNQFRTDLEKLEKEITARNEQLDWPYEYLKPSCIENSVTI

[2] = molecular target: T2, human platelet 12-lipoxygenase (h12-LOX) Y649C (Homo sapiens, UniProt P18054, Y649C); assay: as above; assay type: biochemical
T2 construct: gene ALOX12; Nt-6His-tag recombinant enzyme expressed in Sf9
T2 sequence (P18054 1-663 Y649C): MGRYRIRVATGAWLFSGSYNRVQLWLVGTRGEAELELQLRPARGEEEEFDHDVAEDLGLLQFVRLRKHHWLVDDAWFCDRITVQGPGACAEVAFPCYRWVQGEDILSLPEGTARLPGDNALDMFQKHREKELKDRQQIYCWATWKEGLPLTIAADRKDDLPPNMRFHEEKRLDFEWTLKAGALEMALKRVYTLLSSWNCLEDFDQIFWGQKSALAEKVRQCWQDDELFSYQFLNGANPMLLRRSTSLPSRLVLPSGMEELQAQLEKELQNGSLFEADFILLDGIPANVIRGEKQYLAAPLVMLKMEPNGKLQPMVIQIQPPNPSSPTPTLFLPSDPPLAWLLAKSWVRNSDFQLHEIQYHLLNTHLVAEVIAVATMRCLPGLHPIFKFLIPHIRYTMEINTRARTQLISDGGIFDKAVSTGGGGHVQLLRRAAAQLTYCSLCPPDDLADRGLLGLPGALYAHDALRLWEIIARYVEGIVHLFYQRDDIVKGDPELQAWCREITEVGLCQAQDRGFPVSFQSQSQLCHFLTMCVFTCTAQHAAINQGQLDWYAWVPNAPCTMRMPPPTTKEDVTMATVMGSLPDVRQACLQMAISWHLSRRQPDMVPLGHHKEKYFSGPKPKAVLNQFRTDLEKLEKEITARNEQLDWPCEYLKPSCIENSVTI

[3] = molecular target: T2, human platelet 12-lipoxygenase (h12-LOX) Y649C; assay: as above; assay type: biochemical; remark: listed apart in the source
[4] = molecular target: T1, human platelet 12-lipoxygenase (h12-LOX); assay: as above; assay type: biochemical; remark: listed apart in the source
[5] = molecular target: T3, wild-type human platelet 12S-lipoxygenase (human), P18054; assay: SEC; affinity-purified protein on Superdex 75 10/300 GL, 25 mM HEPES (pH 8), 0.3 mL/min; elution compared with gel filtration standards; details: remark: other sources report otherwise
T3 chain: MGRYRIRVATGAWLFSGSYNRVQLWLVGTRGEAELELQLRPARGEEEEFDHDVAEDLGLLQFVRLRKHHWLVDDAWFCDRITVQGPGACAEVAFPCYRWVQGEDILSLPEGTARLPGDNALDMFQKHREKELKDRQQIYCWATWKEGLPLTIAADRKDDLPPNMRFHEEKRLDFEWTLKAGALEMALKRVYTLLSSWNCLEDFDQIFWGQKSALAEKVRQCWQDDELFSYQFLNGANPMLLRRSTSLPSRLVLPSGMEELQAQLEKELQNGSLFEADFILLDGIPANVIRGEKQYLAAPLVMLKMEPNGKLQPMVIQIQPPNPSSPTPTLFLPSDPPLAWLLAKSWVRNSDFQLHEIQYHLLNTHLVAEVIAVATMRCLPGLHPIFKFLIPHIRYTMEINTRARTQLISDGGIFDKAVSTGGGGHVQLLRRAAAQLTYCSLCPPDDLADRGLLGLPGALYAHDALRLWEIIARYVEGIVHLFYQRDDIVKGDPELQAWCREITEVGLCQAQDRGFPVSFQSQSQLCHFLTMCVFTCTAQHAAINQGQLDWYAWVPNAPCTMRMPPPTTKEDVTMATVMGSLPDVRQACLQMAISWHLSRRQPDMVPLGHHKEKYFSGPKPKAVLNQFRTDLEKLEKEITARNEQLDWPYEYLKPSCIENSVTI

[6] = molecular target: the molecule itself; assay: as above

## CCCCC/C=C\C/C=C\C/C=C\C/C=C\CCCC(=O)O [AA, arachidonic acid]
[1]
  kcat/KM (μM^-1sec^-1) / WT: 8.7 µM⁻¹ s⁻¹
[2]
  kcat/KM (μM^-1sec^-1) / Y649C: 6 µM⁻¹ s⁻¹

## CC/C=C\C/C=C\C/C=C\C/C=C\C/C=C\C/C=C\CCC(=O)O [DHA, docosahexaenoic acid]
[3]
  steady-state Michaelis-Menten kinetics (234 nm), kcat/KM at 22 °C; LC-MS/MS prod: 960000 M⁻¹ s⁻¹
[4]
  steady-state Michaelis-Menten kinetics (234 nm), kcat/KM at 22 °C; LC-MS/MS prod: 7.7e+06 M⁻¹ s⁻¹

B1: wild-type human platelet 12S-lipoxygenase, P18054 1-663 (enzyme)
chain: MGRYRIRVATGAWLFSGSYNRVQLWLVGTRGEAELELQLRPARGEEEEFDHDVAEDLGLLQFVRLRKHHWLVDDAWFCDRITVQGPGACAEVAFPCYRWVQGEDILSLPEGTARLPGDNALDMFQKHREKELKDRQQIYCWATWKEGLPLTIAADRKDDLPPNMRFHEEKRLDFEWTLKAGALEMALKRVYTLLSSWNCLEDFDQIFWGQKSALAEKVRQCWQDDELFSYQFLNGANPMLLRRSTSLPSRLVLPSGMEELQAQLEKELQNGSLFEADFILLDGIPANVIRGEKQYLAAPLVMLKMEPNGKLQPMVIQIQPPNPSSPTPTLFLPSDPPLAWLLAKSWVRNSDFQLHEIQYHLLNTHLVAEVIAVATMRCLPGLHPIFKFLIPHIRYTMEINTRARTQLISDGGIFDKAVSTGGGGHVQLLRRAAAQLTYCSLCPPDDLADRGLLGLPGALYAHDALRLWEIIARYVEGIVHLFYQRDDIVKGDPELQAWCREITEVGLCQAQDRGFPVSFQSQSQLCHFLTMCVFTCTAQHAAINQGQLDWYAWVPNAPCTMRMPPPTTKEDVTMATVMGSLPDVRQACLQMAISWHLSRRQPDMVPLGHHKEKYFSGPKPKAVLNQFRTDLEKLEKEITARNEQLDWPYEYLKPSCIENSVTI
[5]
  stoichiometry N: 2

B2: Y649C h12-LOX (enzyme, human, UniProt P18054 1-663, looked up)
chain: MGRYRIRVATGAWLFSGSYNRVQLWLVGTRGEAELELQLRPARGEEEEFDHDVAEDLGLLQFVRLRKHHWLVDDAWFCDRITVQGPGACAEVAFPCYRWVQGEDILSLPEGTARLPGDNALDMFQKHREKELKDRQQIYCWATWKEGLPLTIAADRKDDLPPNMRFHEEKRLDFEWTLKAGALEMALKRVYTLLSSWNCLEDFDQIFWGQKSALAEKVRQCWQDDELFSYQFLNGANPMLLRRSTSLPSRLVLPSGMEELQAQLEKELQNGSLFEADFILLDGIPANVIRGEKQYLAAPLVMLKMEPNGKLQPMVIQIQPPNPSSPTPTLFLPSDPPLAWLLAKSWVRNSDFQLHEIQYHLLNTHLVAEVIAVATMRCLPGLHPIFKFLIPHIRYTMEINTRARTQLISDGGIFDKAVSTGGGGHVQLLRRAAAQLTYCSLCPPDDLADRGLLGLPGALYAHDALRLWEIIARYVEGIVHLFYQRDDIVKGDPELQAWCREITEVGLCQAQDRGFPVSFQSQSQLCHFLTMCVFTCTAQHAAINQGQLDWYAWVPNAPCTMRMPPPTTKEDVTMATVMGSLPDVRQACLQMAISWHLSRRQPDMVPLGHHKEKYFSGPKPKAVLNQFRTDLEKLEKEITARNEQLDWPCEYLKPSCIENSVTI
notes: human platelet 12-lipoxygenase (h12-LOX), UniProt P18054, with the naturally occurring SNP Y649C made by site-directed mutagenesis; numbering as in UniProt P18054; Variant found in a family with a bleeding diathesis; metal content 20% by ICP-MS; also called Y649C SNP variant of h12-LOX
[6]
  stoichiometry N: 2
